Source: patent publication US11564923B2, “Compounds and pharmaceutical compositions thereof for the treatment of inflammatory disorders” (Galapagos NV, priority 2017, dated 2023)

Legend:
[1] = test system: IFNα activation of STAT1 in PBMC; assay: IFNα activation of STAT1 in PBMC; format: cell-based; conditions: Homo sapiens; IFNα activation of STAT1 in PBMC; average IC50; read-out: IFNα signaling inhibitory potency IC50
Procedure, shortened: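 Human PBMC, with red cells lysed by NH4Cl, were pre-treated with compound for 30 min at 37 °C and 5% CO2. They were then stimulated for 30 min with recombinant human IFNα at 5 ng/mL final.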

[2] = test system: IL-12 activation of STAT4 in NK-92 cells; assay: IL-12 activation of STAT4 in NK-92 cells using AphaLISA SureFire technology; format: cell-based; conditions: Homo sapiens, NK92; IL-12 activation of STAT4 in NK-92 cells, AlphaLISA SureFire; average IC50; read-out: IL12 pSTAT4 IC50
Procedure, shortened: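 NK-92 cells, starved of rhIL-2 overnight, were stimulated with rhIL-12 for 30 min at 37 °C with test compounds, then lysed. Phospho-STAT4 (Tyr693) was read by AlphaLISA SureFire. Percent inhibition versus the vehicle-plus-trigger signal was fitted by sigmoidal nonlinear regression to give IC50, averaged over experiments.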

[3] = target: T1, Recombinant human TYK2 catalytic domain (amino acids 871-1187) (Homo sapiens, UniProt P29597); assay: TYK2 ADPglo kinase assay; format: biochemical; also: 12 µM ATP
T1 construct: catalytic domain (amino acids 871-1187)
T1 sequence (P29597 871-1187): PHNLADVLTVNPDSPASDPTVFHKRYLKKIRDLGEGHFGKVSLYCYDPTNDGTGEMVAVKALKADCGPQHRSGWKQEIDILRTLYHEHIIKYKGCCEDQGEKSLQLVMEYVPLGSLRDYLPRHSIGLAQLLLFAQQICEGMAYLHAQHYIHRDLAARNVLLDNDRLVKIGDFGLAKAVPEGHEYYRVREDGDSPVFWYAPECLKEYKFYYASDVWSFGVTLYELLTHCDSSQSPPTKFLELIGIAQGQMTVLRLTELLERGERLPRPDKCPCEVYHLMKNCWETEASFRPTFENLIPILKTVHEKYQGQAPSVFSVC
Experimental: After 120 min at room temperature, reactions were stopped and the remaining ATP is depleted by adding 5 μL/well of ADP Glo Reagent (Promega, catalog number V912B). After 40 min at room temperature, 10 μl Kinase Detection Reagent (Kinase Detection Substrate (Promega, catalog number V914B) dissolved in Kinase Detection Buffer (Promega, catalog number V913B)) is added to convert ADP to ATP and to measure this newly synthesized ATP in a luciferase/luciferin reaction. Readout is performed after 30 min incubation at room temperature using the Envision. Kinase activity is calculated by subtracting the relative light units (RLU) obtained in the presence of a positive control inhibitor (10 μM staurosporine) from the RLU obtained in the presence of vehicle. The ability of a test compound to inhibit this activity (or percentage inhibition) is determined as:
RLU test compound=RLU determined for sample with test compound present
RLU control=RLU determined for sample with positive control inhibitor
RLU vehicle=RLU determined in the presence of vehicle
Dose dilution series were prepared for the compounds enabling the testing of dose-response effects in the TYK2 assay and the calculation of the IC50 for the compound. Each compound is routinely tested at concentration of 20 μM followed by a 1/5 serial dilution, 10 points in a final concentration of 1% DMSO. […] The data are expressed as the average IC50 from the assays.

[4] = target: Recombinant human JAK3 catalytic domain (amino acids 781-1124) (Homo sapiens, UniProt P52333); assay: JAK3 inhibition assay; format: biochemical
Procedure, shortened: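 Radiometric kinase reaction run 45 min at 30° C., stopped with phosphoric acid; activity as vehicle cpm minus 10 μM staurosporine cpm.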

[5] = test system: IL-12 activation of STAT4 in NK-92 cells; assay: IL-12 activation of STAT4 in NK-92 cells using MSD as readout; format: cell-based; conditions: Homo sapiens, NK92; NK-92 cells, rhIL-12 25 ng/mL, MSD readout; read-out: IL12 pSTAT4 IC50
Experimental: IL-2 is added freshly to the medium with each medium refreshment step. Cells are cultured in a humidified incubator at 37° C. 5% CO2.
NK-92 cells are pre-incubated with test compounds or vehicle for 30 min at 37° C. 5% CO2. […] NK-92 cells are triggered with rhIL-12 for 45 min at 37° C. 5% CO2.
After 45 min of cytokine stimulation the cells are lysed by addition of 50 μL ice-cold lysis buffer (supplemented with the MSD kit). Plates are frozen at −80° C. for minimal 1 hour to lyse the cells completely. After thawing the levels of phospho-STAT4 are quantified using the Phospho-STAT4 (Tyr693) kit (MSD, Catalogue number K150PAD-2) according to the manufacturer's instructions. Electroluminescent signal is measured on the MSD reader.
The percentage inhibition is calculated as: […]
RLU (trigger/veh): Relative lumescent signal determined in presence of vehicle and trigger
RLU (test compound): Relative luminescent signal determined in presence of test compounds)
PIN values are plotted for compounds tested in dose-response and IC50 values are derived using LIMS Software applying non-linear regression (sigmoidal) curve fitting. The data are expressed as the average IC50 from different experiments.

[6] = target: T1, Recombinant human TYK2 catalytic domain (amino acids 871-1187); assay: TYK2 radioactive assay polyGT substrate; format: biochemical; also: 0.1 µM ATP
Procedure, shortened: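 Reaction at 30° C. for 120 min, ended with 150 mM phosphoric acid, washed, counted; percent inhibition scaled between vehicle and 10 μM staurosporine cpm.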

[7] = target: T2, Recombinant human JAK2 (catalytic domain, amino acids 808-1132) (Homo sapiens, UniProt O60674); assay: JAK2 inhibition assay; format: biochemical; conditions: read-out: JAK2 potency IC50; also: 0.7 µM ATP
T2 construct: catalytic domain, amino acids 808-1132

[8] = target: T3, Recombinant human JAK1 (catalytic domain, amino acids 866-1154) (Homo sapiens, UniProt P23458); assay: JAK1 inhibition assay; format: biochemical; conditions: read-out: JAK1 potency IC50
T3 construct: catalytic domain, amino acids 866-1154
T3 sequence (P23458 866-1154): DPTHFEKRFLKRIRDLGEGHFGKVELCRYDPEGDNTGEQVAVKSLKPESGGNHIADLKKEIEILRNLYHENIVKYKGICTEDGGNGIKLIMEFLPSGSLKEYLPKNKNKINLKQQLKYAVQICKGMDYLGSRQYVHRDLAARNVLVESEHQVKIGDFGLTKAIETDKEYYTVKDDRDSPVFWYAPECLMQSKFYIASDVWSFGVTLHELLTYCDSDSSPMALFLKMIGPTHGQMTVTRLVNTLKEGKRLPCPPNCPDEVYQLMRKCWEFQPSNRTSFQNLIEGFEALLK

T2 sequence (O60674 808-1132): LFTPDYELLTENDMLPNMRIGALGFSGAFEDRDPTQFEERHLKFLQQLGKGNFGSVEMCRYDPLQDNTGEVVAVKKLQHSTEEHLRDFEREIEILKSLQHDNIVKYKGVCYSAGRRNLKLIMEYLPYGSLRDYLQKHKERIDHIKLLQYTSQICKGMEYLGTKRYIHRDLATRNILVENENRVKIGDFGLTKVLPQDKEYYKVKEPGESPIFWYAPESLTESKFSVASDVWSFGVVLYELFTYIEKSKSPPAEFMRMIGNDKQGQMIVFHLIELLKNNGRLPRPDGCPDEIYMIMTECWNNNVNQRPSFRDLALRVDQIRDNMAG
Sequence of Recombinant human JAK3 catalytic domain (amino acids 781-1124) (P52333 781-1124): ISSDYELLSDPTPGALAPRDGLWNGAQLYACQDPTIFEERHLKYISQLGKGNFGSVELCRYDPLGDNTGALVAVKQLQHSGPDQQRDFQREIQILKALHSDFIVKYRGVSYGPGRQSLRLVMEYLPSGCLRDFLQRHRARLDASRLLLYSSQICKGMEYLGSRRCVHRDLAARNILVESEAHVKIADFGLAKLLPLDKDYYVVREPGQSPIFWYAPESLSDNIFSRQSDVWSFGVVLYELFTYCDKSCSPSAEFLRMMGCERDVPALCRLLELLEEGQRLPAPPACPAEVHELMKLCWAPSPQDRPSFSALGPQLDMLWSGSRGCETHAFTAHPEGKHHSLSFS

| IC50 [2] [nM] | IC50 [3] [nM] | IC50 [4] [nM] | IC50 [5] [nM] | IC50 [6] [nM] | IC50 [7] [nM] | IC50 [8] [nM] | SMILES | IC50 [1] [nM] |
| --- | --- | --- | --- | --- | --- | --- | --- | --- |
|  |  | 237 | 905 | 10.2 | 14.6 | 64.6 | C[C@H]1COCC[C@@H]1N(C)c1cc(Nc2cc(N)ncn2)c2ncn(C)c2n1 [Compound 17, N7-(6-Amino-pyrimidin-4-yl)-3,N5-dimethyl-N5-((3R,4S)-3-methyl-tetrahydro-pyran-4-yl)-3H-imidazo[4,5-b]pyridine-5,7-diamine] |  |
|  |  | 187 | 4680 | 30.5 | 31.5 | 294 | CN(c1cc(Nc2cc(N)ncn2)c2ncn(C)c2n1)C12CC(C1)C2 [Compound 18, N7-(6-Amino-pyrimidin-4-yl)-N5-bicyclo[1.1.1]pent-1-yl-3,N5-dimethyl-3H-imidazo[4,5-b]pyridine-5,7-diamine] |  |
| 72 |  | 231 | 806 | 10.7 | 11.2 | 80.9 | CC1COCCC1N(C)c1cc(Nc2cc(N)ncn2)c2ncn(C)c2n1 (centres unmarked) [Compound 19, N7-(6-Amino-pyrimidin-4-yl)-3,N5-dimethyl-N5-(3-methyl-tetrahydro-pyran-4-yl)-3H-imidazo[4,5-b]pyridine-5,7-diamine] |  |
|  |  | 2930 | 248 | 18.3 | 66.7 | 234 | CCNC(=O)c1ccc(Nc2cc(Oc3cnc(C#N)cc3C)nc3c2ncn3C)nn1 [Compound 23, 6-[5-(6-Cyano-4-methyl-pyridin-3-yloxy)-3-methyl-3H-imidazo[4,5-b]pyridin-7-ylamino]-pyridazine-3-carboxylic acid ethylamide] | 160 |
|  |  | 2300 | 1120 | 19.2 | 78.3 | 243 | Cc1cc(C#N)ncc1Oc1cc(Nc2ccc(C(=O)NCC(C)O)nn2)c2ncn(C)c2n1 (centres unmarked) [Compound 25, 6-[5-(6-Cyano-4-methyl-pyridin-3-yloxy)-3-methyl-3H-imidazo[4,5-b]pyridin-7-ylamino]-pyridazine-3-carboxylic acid (2-hydroxy-propyl)-amide] | 198 |
|  |  | 495 | 409 | 9.22 | 72.7 | 68 | CCNS(=O)(=O)c1ccc(Nc2cc(Oc3cnc(C#N)cc3C)nc3c2ncn3C)cc1 [Compound 53, 4-[[5-[(6-cyano-4-methyl-3-pyridyl)oxy]-3-methyl-imidazo[4,5-b]pyridin-7-yl]amino]-N-ethyl-benzenesulfonamide] | 119 |
|  |  | 3780 | 4720 | 69.2 | 133 | 461 | Cc1cc(C#N)ncc1Oc1cc(Nc2ccc(C(F)(F)F)cn2)c2ncn(C)c2n1 [Compound 59, 4-methyl-5-[3-methyl-7-[[5-(trifluoromethyl)-2-pyridyl]amino]imidazo[4,5-b]pyridin-5-yl]oxy-pyridine-2-carbonitrile] | 407 |
|  |  | 208 | 3150 | 24.1 | 42 | 157 | CCNC(=O)c1ccc(Nc2cc(NC(C3CC3)C(F)(F)F)nc3c2ncn3C)cn1 (centres unmarked) [Compound 91, 5-[[5-[(1-cyclopropyl-2,2,2-trifluoro-ethyl)amino]-3-methyl-imidazo[4,5-b]pyridin-7-yl]amino]-N-ethyl-pyridine-2-carboxamide] |  |

The remaining lines, values behind:

| SMILES | IC50 [2] [nM] | IC50 [3] [nM] | IC50 [4] [nM] | IC50 [5] [nM] | IC50 [6] [nM] | IC50 [7] [nM] | IC50 [8] [nM] | IC50 [1] [nM] |
| --- | --- | --- | --- | --- | --- | --- | --- | --- |
| Cc1cc(C#N)ncc1Oc1cc(Nc2ccc(N3CCOC(C(C)C)C3)nn2)c2ncn(C)c2n1 (stereo in doubt) [Compound 173, 4-methyl-5-[3-methyl-7-[[6-[(2R)-2-propan-2-ylmorpholin-4-yl]pyridazin-3-yl]amino]imidazo[4,5-b]pyridin-5-yl]oxypyridine-2-carbonitrile] | 33 | 1.3 |  |  |  |  |  | 114 |
| Cc1cc(C#N)ncc1Oc1cc(Nc2ccc(N3CCOC(C(C)C)C3)nn2)c2ncn(C)c2n1 (stereo in doubt) [Compound 177, 4-methyl-5-[3-methyl-7-[[6-[(2S)-2-propan-2-ylmorpholin-4-yl]pyridazin-3-yl]amino]imidazo[4,5-b]pyridin-5-yl]oxypyridine-2-carbonitrile] | 24 | 1.2 |  |  |  |  |  | 71 |
| C[C@H](N(C)c1cc(Nc2cc(N)ncn2)c2ncn(C)c2n1)C(C)(C)C [Compound 12, N7-(6-aminopyrimidin-4-yl)-N5,3-dimethyl-N5-[(1S)-1,2,2-trimethylpropyl]imidazo[4,5-b]pyridine-5,7-diamine] |  |  | 36.7 | 540 | 1.42 | 3.04 | 26.9 | 25 |
| Cc1cc(C#N)ncc1Oc1cc(Nc2ccc(S(C)(=O)=O)cn2)c2ncn(C)c2n1 [Compound 58, 4-methyl-5-[3-methyl-7-[(5-methylsulfonyl-2-pyridyl)amino]imidazo[4,5-b]pyridin-5-yl]oxy-pyridine-2-carbonitrile] |  |  | 1100 | 595 | 7.42 | 35.5 | 97.8 | 88 |
| Cc1cc(C#N)ncc1Oc1cc(Nc2ccc(S(=O)(=O)N3CCOCC3)cc2)c2ncn(C)c2n1 [Compound 63] |  |  | 584 | 1140 | 7.58 | 70 | 102 | 128 |
| Cc1cc(C#N)ncc1Oc1cc(Nc2ccc(N3CCO[C@@H](CO)C3)nn2)c2ncn(C)c2n1 [Compound 163, 5-[7-[[6-[(2R)-2-(hydroxymethyl)morpholin-4-yl]pyridazin-3-yl]amino]-3-methylimidazo[4,5-b]pyridin-5-yl]oxy-4-methylpyridine-2-carbonitrile] |  | 1.06 |  |  |  |  |  |  |
| Cc1cc(C#N)ncc1Oc1cc(Nc2ccc(N3CCO[C@H](CO)C3)nn2)c2ncn(C)c2n1 [Compound 165, 5-[7-[[6-[(2S)-2-(hydroxymethyl)morpholin-4-yl]pyridazin-3-yl]amino]-3-methylimidazo[4,5-b]pyridin-5-yl]oxy-4-methylpyridine-2-carbonitrile] |  | 1.09 |  |  |  |  |  |  |
| Cc1cc(C#N)ncc1Oc1cc(Nc2ccc(N3CCCOCC3)nn2)c2ncn(C)c2n1 [Compound 167, 4-methyl-5-[3-methyl-7-[[6-(1,4-oxazepan-4-yl)pyridazin-3-yl]amino]imidazo[4,5-b]pyridin-5-yl]oxypyridine-2-carbonitrile] | 88 | 2.55 |  |  |  |  |  | 129 |
